Assay results taken from patent publication EP0753300B1, “Use of antioxidative steroids for the manufacture of pharmaceutical preparations for substition therapy in man” (priority 1995, dated 1997).

Legend:
[1] = system: VCAM-1; assay: Inhibition of TNFα-induced VCAM-1 expression in cultured endothelial cells (histological assessment); format: cell-based, humanen Ursprungs; details: cultured human endothelial cells
From the text: (§1) J. Clin. Endocrinol. Metab. 7:1619-1624 (1994) ausgeführt. Als Vergleich zu […] 17β-Estradiol, welches mit (x) gekennzeichnet wurde. Tabelle 1

[2] = Adjuvant arthritis in male rats, oral, 21 days; format: in vivo, Lewis-Ratten; details: for Sekundärarthritis Score: 8 per group, group sum, max. 72 (arthritic control); for % Hemmung Primärarthritis max. Wirkung: swelling of injected left hind paw
Description: Die Adjuvansarthritis bei Lewis-Ratten ist ein gut bekanntes und etabliertes Modell für die chronische Rheumatoid-Arthritis des Menschen [Newbould BB: Chemotherapy of arthritis induced in rats by mycobacterial adjuvant. Br. J. Pharmacol. 21:127-136 (1963); Hirschelmann R: Die 6-Sulfanilamidoindazol-Arthritis und die Adjuvansarthritis der Ratte als Modelle zur Testung von Antiphlogistika. Dissertation B (Habil.-Schrift), Halle, 1976]
Die Arthritis wurde durch Injektion von 0,1 ml Freund'sches Adjuvans in die linke Hinterpfote ausgelöst. Prüfparameter waren die Hemmung der Schwellung der linken Hinterpfote und der Grad der Sekundärarthritis durch Beurteilung der Schwellung der drei anderen Pfoten. Tabelle 3

[3] = system: ICAM-1; assay: Inhibition of TNFα-induced ICAM-1 expression in cultured endothelial cells (histological assessment); format: cell-based, humanen Ursprungs; design: key: +: wenig wirksam; ++: gut wirksam; +++: sehr gut wirksam; details: cultured human endothelial cells
From the text: as §1

[4] = format: in vivo, Mann
From the text: Die aufgezeigten Systeme […] Studie an ä[…]. […] Alter von 52 bis 63 Jahren über 6 Monate […] Probanden nahm eine weitere Medikation ein. Bei 6 der 12 Probanden ergab […]-, Leber- und […] vor Beginn der Studie bei allen Probanden unauffällig. Auch die Plasma-[…] Testosteron > 12 nmol/[…] Testosteron > 0,2 nmol/[…] 6 Probanden […] OGTT erhöhte Gesamtcholesterol- und […] die In-vivo-Bestimmung der LDL-Cholesterol-Oxidation und die Hormonanalysen wurden zu Studienbeginn, danach wöchentlich und einen Tag […] und morgendlichem Fasten jeweils zwischen 8 und 10 Uhr morgens).

[5] = Pentetrazol kindling, seizure stages in male mice; format: in vivo, Mäuse
Description: Aus Tabelle 2 ist ersichtlich, daß J 861 - 14,15α-Methylen-8-dehydro-17α-estradiol z.B. bereits in einer Dosierung von 1 mg/kg nach einmaliger oraler Gabe eine Stunde vor der krampfauslösenden Pentetrazol-Injektion an männlichen Mäusen das Krampfstadium 3 hemmt. In steigender Dosierung und bei längerer Substanzapplikation werden auch die anderen Krampfstadien beeinflußt.

[6] = Carrageenin paw oedema of the male rat; format: in vivo, Ratte; details: 24 hours after provocation of the oedema, inflammation no longer acute
[7] = target: T1, Estrogen-Rezeptor (Oryctolagus cuniculus, UniProt G1SML6); assay: Estrogen receptor affinity, competitive binding with [3H]-Ethinylestradiol in uterus cytosol; design: species or system Kaninchen; details: quotient of IC50 of 17β-Estradiol and of test substance; rabbit uterus cytosol; tracer [3H]-Ethinylestradiol 3 nM; 0 to 4 °C, 18 h
T1 construct: Es wurden weibliche Kaninchen (weiße Neuseeländer) im Gewicht von 1,5 bis 2 kg in Barbituratnarkose getötet, die Uteri entnommen; from tissue; host or cells: rabbit uterus cytosol (100 000 g supernatant of the homogenate)
T1 sequence (G1SML6 1-598): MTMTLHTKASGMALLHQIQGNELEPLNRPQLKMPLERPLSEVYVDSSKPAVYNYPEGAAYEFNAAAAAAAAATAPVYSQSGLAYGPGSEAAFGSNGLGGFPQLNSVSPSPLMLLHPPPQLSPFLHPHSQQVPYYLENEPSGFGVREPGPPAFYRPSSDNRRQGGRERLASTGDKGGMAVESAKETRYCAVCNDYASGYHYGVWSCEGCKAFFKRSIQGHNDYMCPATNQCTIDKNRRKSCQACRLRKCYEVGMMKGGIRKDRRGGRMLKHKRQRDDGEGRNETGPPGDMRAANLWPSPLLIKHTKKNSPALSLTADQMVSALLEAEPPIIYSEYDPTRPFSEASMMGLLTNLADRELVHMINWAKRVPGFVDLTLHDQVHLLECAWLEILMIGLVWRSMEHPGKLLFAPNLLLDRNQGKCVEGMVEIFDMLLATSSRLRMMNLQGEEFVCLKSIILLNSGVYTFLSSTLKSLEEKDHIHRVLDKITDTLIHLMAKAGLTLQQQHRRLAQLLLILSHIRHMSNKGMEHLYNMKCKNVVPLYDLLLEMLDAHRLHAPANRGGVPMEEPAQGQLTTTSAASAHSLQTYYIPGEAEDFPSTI
Description: Die Affinität zum Estrogen Rezeptor wurde in Kaninchen-Uterus-Cytosol bestimmt durch competitive Bindung von ^3H-markiertem Tracer und der jeweils zu testenden Verbindungen in Konzentrationsreihen, die die IC50 einschlossen. […] Das nach Zentrifugieren bei 16 000 g und 100 000 g gewonnene Cytosol wurde portionsweise schockgefroren und bei -30 °C aufbewahrt. Das geeignet verdünnte Cytosol (Rezeptorkonzentration ca. 0,3 nM) wurde mit dem Tracer [^3H]-Ethinylestradiol (3nM) und den zu prüfenden Competitoren bei 0 bis 4 °C für 18 Stunden inkubiert. Der freie Tracer wurde durch Adsorption an Aktivkohle/Dextran (1 %/0,1 %) und Zentrifugation abgetrennt und die gebundene ^3H-Aktivität im Überstand gemessen.

[8] = 1,0 mg/kg, single oral dose one hour before pentetrazol

C[C@]12CC[C@@H]3c4ccc(O)cc4CC[C@H]3[C@@H]1CC[C@H]2O [17α-Estradiol]
Hemmung der Expression von VCAM-1 [1]: + + | Sekundärarthritis Score ([2]; 1 mg/kg oral): 43 | % Hemmung Primärarthritis max. Wirkung ([2]; 1 mg/kg oral): 36% | Sekundärarthritis Score ([2]; 10 mg/kg oral): 35 | % Hemmung Primärarthritis max. Wirkung ([2]; 10 mg/kg oral): 39% | Hemmung der Expression von ICAM-1 [3]: + + | Einfluß auf die gewählten Hormonparameter ([4]; 2 mg daily, 6 months, older men, includes missing SHBG rise): nicht signifikant beeinflußt | Schlafqualität und Libido ([4]; 2 mg daily, 6 months, reported by subjects): Verbesserung | Freies Testosteron ([4]; Versuchsende, after 6 months 2 mg daily, 12 overweight men 52-63 years, Versuchsbeginn 0.32 ± 0.14): 0.33 ± 0.15 nmol/L | DHEA ([4]; Versuchsende, after 6 months 2 mg daily, 12 overweight men 52-63 years, Versuchsbeginn 14.3 ± 10.6): 13.46 ± 8.13 nmol/L | Gesamt-Testosteron ([4]; Versuchsende, after 6 months 2 mg daily, 12 overweight men 52-63 years, Versuchsbeginn 16.5 ± 4.6): 15.6 ± 5.1 nmol/L | Insulin ([4]; Versuchsende, after 6 months 2 mg daily, 12 overweight men 52-63 years, Versuchsbeginn 17 ± 10): 15 ± 9 mlE/L | SHBG ([4]; Versuchsende, after 6 months 2 mg daily, 12 overweight men 52-63 years, Versuchsbeginn 38 ± 17): 39 ± 18 nmol/L | DHEAS ([4]; Versuchsende, after 6 months 2 mg daily, 12 overweight men 52-63 years, Versuchsbeginn 5412 ± 3711): 5660 ± 3292 nmol/L | Lp(a) ([4]; Versuchsende, after 6 months 2 mg daily, Versuchsbeginn 6.0 ± 1.0): 5.7 ± 0.7 mg/dL | LDL-Cholesterol ([4]; Versuchsende, after 6 months 2 mg daily, Versuchsbeginn 154 ± 10.5): 135 ± 5.2 mg/dL | Gesamt-Cholesterol ([4]; Versuchsende, after 6 months 2 mg daily, Versuchsbeginn 225 ± 11.1, p<0.05): 195 ± 5.7 mg/dL | Triglyceride ([4]; Versuchsende, after 6 months 2 mg daily, Versuchsbeginn 226 ± 31.1, p<0.05): 132 ± 1.5 mg/dL | LDL-Cholesterol-Oxidation ([4]; older men under 17α-Estradiol, blood samples, figures not given): deutliche Verzögerung

C[C@]12CC[C@@H]3c4ccc(O)cc4CC[C@H]3[C@@H]1CC[C@@H]2O [17β-Estradiol, reference compound]
Hemmung der Expression von VCAM-1 [1]: + + | Sekundärarthritis Score ([2]; 1 mg/kg oral): 47 | % Hemmung Primärarthritis max. Wirkung ([2]; 1 mg/kg oral): 21% | Sekundärarthritis Score ([2]; 10 mg/kg oral): 36 | % Hemmung Primärarthritis max. Wirkung ([2]; 10 mg/kg oral): 35% | Hemmung der Expression von ICAM-1 [3]: +

NC(=O)N1c2ccccc2C=Cc2ccccc21 [Carbamazepin, reference compound]
Krampfstadien 1/2 Kl (Krampfindex gesenkt) ([5]; 24 mg/kg): - | Krampfstadien 1/2 LZ[s] (Latenzzeit bis zur Ausprägung der Krämpfe erhöht) ([5]; 24 mg/kg): + | Krampfstadien 3 Kl (Krampfindex gesenkt) ([5]; 24 mg/kg): - | Krampfstadien 3 LZ[s] (Latenzzeit bis zur Ausprägung der Krämpfe erhöht) ([5]; 24 mg/kg): + | Krampfstadien 4/5/6 Kl (Krampfindex gesenkt) ([5]; 24 mg/kg): + | Krampfstadien 4/5/6 LZ[s] (Latenzzeit bis zur Ausprägung der Krämpfe erhöht) ([5]; 24 mg/kg): ++

O=C(O)Cc1ccccc1Nc1c(Cl)cccc1Cl [Diclofenac-Natrium]
Hemmeffekte [6]: nur noch geringe Hemmeffekte

C[C@]12CCC3=C(CCc4cc(O)ccc43)[C@@H]1CC[C@H]2O [J 811, 8-Dehydro-17α-estradiol]
relative Bindungsaffinität zum Estrogen-Rezeptor (RBA) [7]: 21%

C[C@]12CCC3=C(CCc4cc(O)ccc43)[C@@]13C[C@H]3C[C@H]2O [J 861, 14,15α-Methylen-8-dehydro-17α-estradiol]
Hemmung der Expression von VCAM-1 [1]: + + + | Sekundärarthritis Score ([2]; 1 mg/kg oral): 72 | % Hemmung Primärarthritis max. Wirkung ([2]; 1 mg/kg oral): 16% | Sekundärarthritis Score ([2]; 10 mg/kg oral): 46 | % Hemmung Primärarthritis max. Wirkung ([2]; 10 mg/kg oral): 38% | Sekundärarthritis Score ([2]; 25 mg/kg oral): 38 | % Hemmung Primärarthritis max. Wirkung ([2]; 25 mg/kg oral): 61% | Sekundärarthritis Score ([2]; 50 mg/kg oral): 35 | % Hemmung Primärarthritis max. Wirkung ([2]; 50 mg/kg oral): 47% | Krampfstadien 1/2 Kl (Krampfindex gesenkt) ([5]; 10 mg/kg): - | Krampfstadien 1/2 LZ[s] (Latenzzeit bis zur Ausprägung der Krämpfe erhöht) ([5]; 10 mg/kg): - | Krampfstadien 3 Kl (Krampfindex gesenkt) ([5]; 10 mg/kg): ++ | Krampfstadien 3 LZ[s] (Latenzzeit bis zur Ausprägung der Krämpfe erhöht) ([5]; 10 mg/kg): - | Krampfstadien 4/5/6 Kl (Krampfindex gesenkt) ([5]; 10 mg/kg): + | Krampfstadien 4/5/6 LZ[s] (Latenzzeit bis zur Ausprägung der Krämpfe erhöht) ([5]; 10 mg/kg): ++ | Krampfstadien 1/2 Kl (Krampfindex gesenkt) ([5]; 100 mg/kg): - | Krampfstadien 1/2 LZ[s] (Latenzzeit bis zur Ausprägung der Krämpfe erhöht) ([5]; 100 mg/kg): - | Krampfstadien 3 Kl (Krampfindex gesenkt) ([5]; 100 mg/kg): ++ | Krampfstadien 3 LZ[s] (Latenzzeit bis zur Ausprägung der Krämpfe erhöht) ([5]; 100 mg/kg): - | Krampfstadien 4/5/6 Kl (Krampfindex gesenkt) ([5]; 100 mg/kg): + | Krampfstadien 4/5/6 LZ[s] (Latenzzeit bis zur Ausprägung der Krämpfe erhöht) ([5]; 100 mg/kg): ++ | Krampfstadien 1/2 Kl (Krampfindex gesenkt) [5, 8]: - | Krampfstadien 1/2 LZ[s] (Latenzzeit bis zur Ausprägung der Krämpfe erhöht) [5, 8]: - | Krampfstadien 3 Kl (Krampfindex gesenkt) [5, 8]: +++ | Krampfstadien 3 LZ[s] (Latenzzeit bis zur Ausprägung der Krämpfe erhöht) [5, 8]: - | Krampfstadien 4/5/6 Kl (Krampfindex gesenkt) [5, 8]: + | Krampfstadien 4/5/6 LZ[s] (Latenzzeit bis zur Ausprägung der Krämpfe erhöht) [5, 8]: + | Hemmung der Expression von ICAM-1 [3]: + + + | relative Bindungsaffinität zum Estrogen-Rezeptor (RBA) [7]: 32%
